Assay results from patent US20090118350A1, “Biomarkers for Identifying Efficacy of Tegaserod in Patients with Chronic Constipation” (priority 2005, published 2009).

Test system: patients with chronic constipation
Assay: Clinical trial, primary efficacy: mean increase of 1 or more CSBM/week over baseline after 4 weeks of treatment (responders), by subgroup and genotype
Format: in vivo, human
Conditions: for % Responders: 6-mg bid
Method: Introduction. A clinical trial was performed to evaluate the efficacy of tegaserod (Zelmac®/Zelnorm™) at 6 mg bid (12 mg/day) or 2 mg bid (4 mg/day) vs. placebo by measuring the number of complete spontaneous bowel movements (CSBM) during the first 4 weeks of treatment. Secondary objectives included evaluating the number of CSBM during the entire 12-week treatment period, bowel habits, laxative use, and safety and tolerability issues. The clinical trial design consisted of a 2-week baseline period without medication, a 12-week, randomized, double-blind, placebo-controlled treatment period, and a 4-week withdrawal period without study medication. As part of the clinical trial, DNA was collected from patients at screening for pharmacogenetic analysis to evaluate genetic polymorphisms relating to drug targets and disease aetiology.
Samples. A total 1348 patients were randomized as the intent-to-treat (ITT) population. Blood samples from these patients were collected at the time of patient screening and DNA was extracted using the PUREGENE™ DNA Isolation Kit (D-50K). Of these, samples from 738 randomized patients had good quality genotype data for at least half of the 55 SNPs evaluated.
Clinical assessments. […] The primary efficacy endpoint evaluated was the increase of 1 or more CSBM/week over baseline after 4 weeks of treatment. A secondary endpoint evaluated in this genotyping study was RESP12, the increase of 1 of more CSBM/week over baseline after 12 weeks of treatment. Patients were classified as responders if they met these criteria and had completed at least 7 days of treatment. Additional secondary efficacy assessments were evaluated based on the weekly diary assessments, such as bothersome constipation, bothersome abdominal pain, and satisfaction with bowel habits at the end of the 12-week treatment period (using the baseline value as a co-variant for analysis).
Genotyping. A total of 61 polymorphisms in 23 candidate genes were selected for analysis. Genotyping was performed using the TaqMan® technology for most of the assays, while a few were performed in-house using the Third Wave Technologies Invader Assay technique (see TABLE 2 for assay IDs for all evaluated SNPs). Of the 61 SNPs genotyped, 55 yielded good quality, polymorphic genotypes for use in further evaluation.
Statistical analysis. Statistical analysis was performed using SAS version 8.2 (The SAS Institute, Cary, N.C., USA). Analysis methods included Fisher's Exact tests, analysis of Covariance (ANCOVA), logistic regression, and Mantel-Haenzel tests to determine odds ratios and 95% confidence intervals, with significance established at p<0.05. Calculation of linkage disequilibrium was performed using the GOLD (graphical overview of linkage disequilibrium) method described by Abecasis & Cookson, Bioinformatics 16: 182-3 (2000).
Demographic comparisons. TABLE 3 presents the demographic breakdown of the patients in the overall clinical study and those included in this genotype analysis. Distributions were similar between the genotype population and the total patient population. […] Based on these findings, it was decided to limit analysis to the Caucasian population, which accounted for nearly 90% of all patients, to prevent a confounding effect of race on subsequent genotype analyses. Furthermore, the analysis was also limited to those intent-to-treat patients that were treated with tegaserod or placebo for at least 7 days (total of 635 patients).
Comparison of overall response rates. TABLE 4 presents the overall response for the primary efficacy endpoint (a mean increase in 1 or more CSBM/week over baseline after 4 weeks) for tegaserod 6-mg bid compared with placebo for both the overall patient population and the subgroup of patients for which we had genotype data (all races and Caucasians only). […]

`[H]/N=C(/NCCCCC)N/N=C/c1c[nH]c2ccc(OC)cc12` [tegaserod, Tegaserod] was tested, and the “% Responders” value (4 weeks, All Caucasians (ITT, >=7 days), Age <65, M + F) was 46%, the “% Responders” value (4 weeks, All Caucasians (ITT, >=7 days), Age >=65, M + F) was 33% and the “% Responders” value (4 weeks, All Caucasians (ITT, >=7 days), Age All, Female) was 46%. The “% Responders” value (4 weeks, All Caucasians (ITT, >=7 days), Age All, M + F) was 45%, the “% Responders” value (4 weeks, All Caucasians (ITT, >=7 days), Age All, Male) was 37% and the “% Responders” value (4 weeks, All genotyped (ITT, >=7 days), Age <65, M + F) was 45%. For the same compound, the “% Responders” value (4 weeks, All genotyped (ITT, >=7 days), Age >=65, M + F) was 50%, the “% Responders” value (4 weeks, All genotyped (ITT, >=7 days), Age All, Female) was 45% and the “% Responders” value (4 weeks, All genotyped (ITT, >=7 days), Age All, M + F) was 46%. For the same compound, the “% Responders” value (4 weeks, All genotyped (ITT, >=7 days), Age All, Male) was 48%, the “% Responders” value (4 weeks, All patients (ITT, >=7 days), Age <65, M + F) was 45% and the “% Responders” value (4 weeks, All patients (ITT, >=7 days), Age >=65, M + F) was 35%. The “% Responders” value (4 weeks, All patients (ITT, >=7 days), Age All, Female) was 45%, the “% Responders” value (4 weeks, All patients (ITT, >=7 days), Age All, M + F) was 44% and the “% Responders” value (4 weeks, All patients (ITT, >=7 days), Age All, Male) was 36%. For the same compound, the “% Responders” value (4 weeks, Caucasians genotyped (ITT, >=7 days), Age <65, M + F, all genotypes) was 46%, the “% Responders” value (4 weeks, Caucasians genotyped (ITT, >=7 days), Age >=65, M + F, all genotypes) was 47% and the “% Responders” value (4 weeks, Caucasians genotyped (ITT, >=7 days), Age All, Female, all genotypes) was 45%. The “% Responders” value (4 weeks, Caucasians genotyped (ITT, >=7 days), Age All, M + F, all genotypes) was 46%, the “% Responders” value (4 weeks, Caucasians genotyped (ITT, >=7 days), Age All, Male, all genotypes) was 52% and the “% Responders” value (4 weeks, ITT Caucasians >=7 days, 0 of 14 SNPs) was 32%. The “% Responders” value (4 weeks, ITT Caucasians >=7 days, >=1 of 14 SNPs) was 53%, the “% Responders” value (4 weeks, ITT Caucasians >=7 days, AQP3 (PG ID 1838) genotype CC) was 43% and the “% Responders” value (4 weeks, ITT Caucasians >=7 days, AQP3 (PG ID 1838) genotype CG) was 47%. For the same compound, the “% Responders” value (4 weeks, ITT Caucasians >=7 days, AQP3 (PG ID 1838) genotype GG) was 71%, the “% Responders” value (4 weeks, ITT Caucasians >=7 days, Female (All ages), 0 of the 12 SNPs) was 33% and the “% Responders” value (4 weeks, ITT Caucasians >=7 days, Female (All ages), 1-12 of the 12 SNPs) was 59%. For the same compound, the “% Responders” value (4 weeks, ITT Caucasians >=7 days, HTR3B (PG ID 3755) genotype AA) was 46%, the “% Responders” value (4 weeks, ITT Caucasians >=7 days, HTR3B (PG ID 3755) genotype AC) was 44% and the “% Responders” value (4 weeks, ITT Caucasians >=7 days, HTR3B (PG ID 3755) genotype CC) was 67%. The “% Responders” value (4 weeks, ITT Caucasians >=7 days, HTR4 (PG ID 1746) genotype CC) was 42%, the “% Responders” value (4 weeks, ITT Caucasians >=7 days, HTR4 (PG ID 1746) genotype CT) was 44% and the “% Responders” value (4 weeks, ITT Caucasians >=7 days, HTR4 (PG ID 1746) genotype TT) was 75%. For the same compound, the “% Responders” value (4 weeks, ITT Caucasians >=7 days, HTR4 (PG ID 3743) genotype AA) was 43%, the “% Responders” value (4 weeks, ITT Caucasians >=7 days, HTR4 (PG ID 3743) genotype AC) was 46% and the “% Responders” value (4 weeks, ITT Caucasians >=7 days, HTR4 (PG ID 3743) genotype CC) was 78%. The “% Responders” value (4 weeks, ITT Caucasians >=7 days, HTR4 (PG ID 3747) genotype AA) was 43%, the “% Responders” value (4 weeks, ITT Caucasians >=7 days, HTR4 (PG ID 3747) genotype AT) was 45% and the “% Responders” value (4 weeks, ITT Caucasians >=7 days, HTR4 (PG ID 3747) genotype TT) was 70%. The “% Responders” value (4 weeks, ITT Caucasians >=7 days, HTR4 (PG ID 3753) genotype CC) was 43%, the “% Responders” value (4 weeks, ITT Caucasians >=7 days, HTR4 (PG ID 3753) genotype CT) was 44% and the “% Responders” value (4 weeks, ITT Caucasians >=7 days, HTR4 (PG ID 3753) genotype TT) was 75%. The “% Responders” value (4 weeks, ITT Caucasians >=7 days, HTR4 (PG ID 3754) genotype AA) was 46%, the “% Responders” value (4 weeks, ITT Caucasians >=7 days, HTR4 (PG ID 3754) genotype AT) was 42% and the “% Responders” value (4 weeks, ITT Caucasians >=7 days, HTR4 (PG ID 3754) genotype TT) was 67%. For the same compound, the “% Responders” value (4 weeks, ITT Caucasians >=7 days, HTR4 (PG ID 3756) genotype AA) was 39%, the “% Responders” value (4 weeks, ITT Caucasians >=7 days, HTR4 (PG ID 3756) genotype AC) was 46% and the “% Responders” value (4 weeks, ITT Caucasians >=7 days, HTR4 (PG ID 3756) genotype CC) was 71%. For the same compound, the “% Responders” value (4 weeks, ITT Caucasians >=7 days, M + F (<65), 0 of the 12 SNPs) was 33%, the “% Responders” value (4 weeks, ITT Caucasians >=7 days, M + F (<65), 1-12 of the 12 SNPs) was 61% and the “% Responders” value (4 weeks, ITT Caucasians >=7 days, M + F (>=65), 0 of the 12 SNPs) was 14%. For the same compound, the “% Responders” value (4 weeks, ITT Caucasians >=7 days, M + F (>=65), 1-12 of the 12 SNPs) was 70%, the “% Responders” value (4 weeks, ITT Caucasians >=7 days, M + F (All ages), 0 of the 12 high responder SNPs) was 31% and the “% Responders” value (4 weeks, ITT Caucasians >=7 days, M + F (All ages), 1-12 of the 12 high responder SNPs) was 62%. The “% Responders” value (4 weeks, ITT Caucasians >=7 days, MLN (PG ID 1783) genotype CC) was 47%, the “% Responders” value (4 weeks, ITT Caucasians >=7 days, MLN (PG ID 1783) genotype CT) was 40% and the “% Responders” value (4 weeks, ITT Caucasians >=7 days, MLN (PG ID 1783) genotype TT) was 63%. For the same compound, the “% Responders” value (4 weeks, ITT Caucasians >=7 days, Male (All ages), 0 of the 12 SNPs) was 20%, the “% Responders” value (4 weeks, ITT Caucasians >=7 days, Male (All ages), 1-12 of the 12 SNPs) was 82% and the “% Responders” value (4 weeks, ITT Caucasians >=7 days, SCNN1A (PG ID 3806) genotype GG) was 62%. For the same compound, the “% Responders” value (4 weeks, ITT Caucasians >=7 days, SCNN1A (PG ID 3806) genotype GT) was 47%, the “% Responders” value (4 weeks, ITT Caucasians >=7 days, SCNN1A (PG ID 3806) genotype TT) was 36% and the “% Responders” value (4 weeks, ITT Caucasians >=7 days, SLC12A2 (PG ID 1842) genotype AA) was 69%. For the same compound, the “% Responders” value (4 weeks, ITT Caucasians >=7 days, SLC12A2 (PG ID 1842) genotype AG) was 27%, the “% Responders” value (4 weeks, ITT Caucasians >=7 days, SLC12A2 (PG ID 1842) genotype GG) was 51% and the “% Responders” value (4 weeks, ITT Caucasians >=7 days, SLC12A2 (PG ID 3801) genotype CC) was 75%. For the same compound, the “% Responders” value (4 weeks, ITT Caucasians >=7 days, SLC12A2 (PG ID 3801) genotype CT) was 27%, the “% Responders” value (4 weeks, ITT Caucasians >=7 days, SLC12A2 (PG ID 3801) genotype TT) was 52% and the “% Responders” value (4 weeks, ITT Caucasians >=7 days, TPH1 (PG ID 1756) genotype GG) was 51%. The “% Responders” value (4 weeks, ITT Caucasians >=7 days, TPH1 (PG ID 1756) genotype GT) was 48%, the “% Responders” value (4 weeks, ITT Caucasians >=7 days, TPH1 (PG ID 1756) genotype TT) was 36% and the “% Responders” value (4 weeks, ITT Caucasians >=7 days, TPH1 (PG ID 3784) genotype CC) was 32%. For the same compound, the “% Responders” value (4 weeks, ITT Caucasians >=7 days, TPH1 (PG ID 3784) genotype CT) was 49%, the “% Responders” value (4 weeks, ITT Caucasians >=7 days, TPH1 (PG ID 3784) genotype TT) was 50% and the rate of response (lower dose 2-mg bid, 4 weeks, compared with placebo and with 6-mg bid) was “the response was less than that seen for the 6-mg bid dose”. It also gave an Odds Ratio (the two other genotyped SCNN1A SNPs (near 5' end and near 3' end)) greater than 3.5.
